# Reference: BindingDB's records for doi:10.1016/j.bmcl.2003.08.010 (University of Manchester, 2003)
# Assay: Inhibitory activity against Escherichia coli thymidine phosphorylase
smiles,measurement,value
"C=CCNC(=S)NC=C1C(=O)NC(=O)NC1=O [1-Allyl-3-(2,4,6-trioxo-tetrahydro-pyrimidin-5-ylidenemethyl)-thiourea]",IC50,94.8 µM
